Literature values in patent publication US20110052580A1, “USE OF PICOPLATIN AND BEVACIZUMAB TO TREAT COLORECTAL CANCER” (Poniard Pharmaceuticals, Inc., priority 2008, published 2011).

Columns and labels:
[1] = system: metastatic colorectal cancer (MCRC); details: single agent therapy
[2] = system: xenotransplant models of colon cancer; details: mouse, in vivo
[3] = system: human vascular endothelial growth factor (VEGF)
Sequence of human vascular endothelial growth factor (VEGF) (P15692 207-311 limits assumed): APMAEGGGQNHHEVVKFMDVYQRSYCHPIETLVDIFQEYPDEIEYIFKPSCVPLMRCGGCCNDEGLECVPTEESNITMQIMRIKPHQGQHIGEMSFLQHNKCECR

Compound | Median survival [1] | Progression-free survival, median [1] | Response rate [1] | Effect on metastatic disease progression [2] | Effect on microvascular growth [2] | Binding to and inhibition of VEGF [3]
CCc1c2c(nc3ccc(OC(=O)N4CCC(N5CCCCC5)CC4)cc13)-c1cc3c(c(=O)n1C2)COC(=O)[C@]3(O)CC [irinotecan] | ~12 months | 4.3 months | 18% | – | – | –
O=C1[O][Pt]2([NH][C@@H]3CCCC[C@H]3[NH]2)[O]C1=O [oxaliplatin] | ~14.5 months | 4.0 months | 12% | – | – | –
bevacizumab: recombinant humanized monoclonal IgGl antibody that binds to and inhibits human vascular endothelial growth factor (VEGF) | – | – | – | inhibition of metastatic disease progression | reduction of microvascular growth | binds to and inhibits the biologic activity of human vascular endothelial growth factor (VEGF)
